Here are results for 12 compounds from patent US20030232902A1, “Ink composition and ink - jet recording method” (FUJI PHOTO FILM CO., LTD., priority 2002, published 2003).

The nature of series [1]: Solubility of auxiliary solvent in water at 25° C. As to conditions: for Solubility of auxiliary solvent in water at 25° C.: in 100 g of water at 25° C.; for Auxiliary solvent Water solubility: Table 1.
A short description of series [2]: Water solubility of high-boiling point organic solvent. The format is physicochemical. To be noted: 25° C.
Source text: Thus, the water solubility is preferably 4 g or below, more preferably 3 g or below, and still more preferably 2 g or below and most preferably 1 g or below.
Series [3] is described as follows: Specific gravity of high-boiling point organic solvent. The format is physicochemical.

Take 2-ethylene acetate [AS-4]: the “Solubility of auxiliary solvent in water at 25° C.” value (“Solubility of auxiliary solvent” for short) in series [1] came to 20 g. Consider `CCOC(C)=O` [AS-1, ethyl acetate], for which, in series [1], the “Auxiliary solvent Water solubility” value was 8 g and the “Solubility of auxiliary solvent” value stood at 8 g. With `CCCOC(C)=O` [AS-2, propyl acetate], in series [1], the “Auxiliary solvent Water solubility” value came out at 2 g and the “Solubility of auxiliary solvent” value was determined as 2 g. Consider `CCC(CC)COC(C)=O` [AS-3, 2-ethylbutyl acetate], for which the “Solubility of auxiliary solvent” value in series [1] was less than 1 g.

For `CCOCCOC(C)=O` [AS-5, 2-ethoxyethyl acetate], the “Solubility of auxiliary solvent” value in series [1] is listed as 25 g.

`CCCCOC(C)=O` [AS-6, butyl acetate]: the “Solubility of auxiliary solvent” value in series [1] is listed as 2 g. As to `CCOC(=O)CC` [AS-7, ethyl propionate], the “Solubility of auxiliary solvent” value in series [1] turned out to be 2 g.

`CCCCOCCOCCOC(C)=O` [AS-10, 2-(2-n-butoxyethoxy)ethyl acetate]: the “Solubility of auxiliary solvent” value in series [1] is 2 g. Same read-out and setting: under `O=C1CCCCC1` [AS-11, cyclohexanone] stands 15 g. `O=P(OCCCl)(OCCCl)OCCCl` [SPX-3, (ClCH2CH2O)3—P═O]: in series [2], the “High-boiling point organic solvent Water Solubility” value was determined as 4.64 g. In addition, the “High-boiling point organic solvent Specific Gravity” value in series [3] is 1.41.

Turning to `CCCCCOP(=O)(OCCCCC)OCCCCC` [SPX-4, [(n)C5H11O]3—P═O], in series [2], the “High-boiling point organic solvent Water Solubility” value was 4.5 g. In addition, the “High-boiling point organic solvent Specific Gravity” value in series [3] is given as 0.94. On the same counts, the results for (ClCH2CHCHO)3—P═O [SPX-2] are 0.9 g and 1.51.
